# Test results taken from patent publication US5872126A, “Methods and compositions for treating preterm labor” (priority 1997, dated 1999).
# System: parturition in the rat
# Assay: Parturition after termination of drug treatment on GD 17, 19 or 20 (Example 2)
# Format: in vivo, Sprague-Dawley rat
# Conditions: 20 mg/kg/day; for Mean Length of Gestation ± SD: in days (unit assumed)
# From the text: In order to determine if termination of drug treatment with the 5α-reductase type 1 inhibitor 3-oxo-4-aza-4,7β-dimethyl-16β-(4-chlorophenoxy)-5α-androstane ("test compound") on GD 17, 19 or 20 would allow the 3-oxo-4-aza-4,7β-dimethyl-16β-(4-chlorophenoxy)-5α-androstane-treated pregnant females to initiate and complete parturition, Sprague-Dawley rats (Charles River Laboratories, Raleigh, N.C.) were approximately ten weeks of age and weighted 223 to 276 grams on Gestation Day 0 (GD 0, the day of finding copulatory plugs). The design of the study is as described below. All animals were housed and fed as described in Example 1, with the exception of a 1 hour transient electrical failure, during which power outage dim illumination was provided by emergency backup lighting.
# A dose of 20 mg/kg/day of the test compound was given once daily by oral gavage to the three treatment groups of 10 mated females each, designated by the treatment interval (GD 6-17, GD 6-19, and GD 6-20), at a dose volume of 5 mL/kg. (GD 6-17 received treatment from Gestational Day 6 through 17, etc.) An additional group of 10 females similarly received the vehicle (0.5% methylcellulose in deionized water with 0.02% sodium lauryl sulfate (SLS)) on GD 6-20 and served as the control.
compound,measurement,setting,value
"C[C@H]1C[C@H]2N(C)C(=O)CC[C@]2(C)[C@H]2CC[C@]3(C)C[C@@H](Oc4ccc(Cl)cc4)C[C@H]3[C@H]12 [test compound, 3-oxo-4-aza-4,7β-dimethyl-16β-(4-chlorophenoxy)-5α-androstane]",length of gestation relative to controls,all dosing intervals,increases in the length of gestation
same,number of pregnant females completing parturition,"dosed GD 6-17, delivery day GD 22.0",3
same,number of pregnant females completing parturition,"dosed GD 6-17, delivery day GD 22.5",1
same,number of pregnant females completing parturition,"dosed GD 6-17, delivery day GD 23.0",6
same,Mean Length of Gestation ± SD,dosed GD 6-17,22.6 ± 0.5
same,Sacrificed GD 24 due to failure to initiate or complete parturition,dosed GD 6-19,1
same,pregnant females that failed to initiate or complete delivery (fraction),dosed GD 6-19,1/10
same,number of pregnant females completing parturition,"dosed GD 6-19, delivery day GD 22.0",1
same,number of pregnant females completing parturition,"dosed GD 6-19, delivery day GD 22.5",3
same,number of pregnant females completing parturition,"dosed GD 6-19, delivery day GD 23.0",4
same,number of pregnant females completing parturition,"dosed GD 6-19, delivery day GD 23.5",1
same,Mean Length of Gestation ± SD,dosed GD 6-19,22.8 ± 0.4
same,Sacrificed GD 24 due to failure to initiate or complete parturition,dosed GD 6-20,2
same,pregnant females that failed to initiate or complete delivery (fraction),dosed GD 6-20,2/9
same,number of pregnant females completing parturition,"dosed GD 6-20, delivery day GD 23.0",5
same,number of pregnant females completing parturition,"dosed GD 6-20, delivery day GD 24",2
same,Mean Length of Gestation ± SD,dosed GD 6-20,23.3 ± 0.5
